Measured values: patent publication US20260092076A1, “NOVEL COMPOUNDS” (Hoffmann-La Roche Inc., priority 2023, published 2026)
Counter-ions that a name gives are not always drawn.

Assays:
[1] = target: T1, NLRP3 (Homo sapiens, UniProt Q96P20); test: THP-1 cells pyroptosis assay; format: cell-based; set-up: Seed THP-1 cells (25,000 cells/well) containing 1.0 μg/ml LPS in 40 μl of RPMI medium; host or cells: THP-1 cells, LPS-primed, nigericin-stimulated; conditions: THP-1 cells with 1.0 μg/ml LPS, compound 3 hours, nigericin 5 μM 1 hr, resazurin readout
T1 sequence (Q96P20 whole entry): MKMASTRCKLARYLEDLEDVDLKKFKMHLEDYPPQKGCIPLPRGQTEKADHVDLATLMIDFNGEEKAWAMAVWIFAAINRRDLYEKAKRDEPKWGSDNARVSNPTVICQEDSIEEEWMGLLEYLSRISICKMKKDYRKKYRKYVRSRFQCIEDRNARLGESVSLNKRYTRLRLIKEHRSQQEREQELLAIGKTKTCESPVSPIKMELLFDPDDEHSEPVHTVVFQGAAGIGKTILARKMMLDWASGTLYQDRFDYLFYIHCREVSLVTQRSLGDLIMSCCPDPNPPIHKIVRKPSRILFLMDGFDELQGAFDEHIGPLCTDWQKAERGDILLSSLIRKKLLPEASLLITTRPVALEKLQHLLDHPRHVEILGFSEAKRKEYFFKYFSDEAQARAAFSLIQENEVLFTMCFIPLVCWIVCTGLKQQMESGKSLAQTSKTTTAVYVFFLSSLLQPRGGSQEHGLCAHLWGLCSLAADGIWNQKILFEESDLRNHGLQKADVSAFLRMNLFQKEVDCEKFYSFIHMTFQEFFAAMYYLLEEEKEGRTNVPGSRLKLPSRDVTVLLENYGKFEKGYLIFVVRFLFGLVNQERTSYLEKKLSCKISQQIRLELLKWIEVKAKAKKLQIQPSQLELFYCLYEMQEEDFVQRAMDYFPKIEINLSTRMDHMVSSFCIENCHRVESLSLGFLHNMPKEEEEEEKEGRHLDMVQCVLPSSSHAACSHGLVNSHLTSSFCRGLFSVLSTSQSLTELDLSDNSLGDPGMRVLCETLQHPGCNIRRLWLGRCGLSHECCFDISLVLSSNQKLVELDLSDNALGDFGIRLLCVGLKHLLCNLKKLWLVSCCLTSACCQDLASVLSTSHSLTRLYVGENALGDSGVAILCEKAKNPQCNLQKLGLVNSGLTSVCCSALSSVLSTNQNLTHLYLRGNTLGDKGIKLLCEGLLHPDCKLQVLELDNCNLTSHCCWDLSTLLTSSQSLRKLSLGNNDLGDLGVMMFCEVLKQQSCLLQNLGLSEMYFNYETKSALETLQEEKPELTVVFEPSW
Experimental: THP-1 cells (ATCC #TIB-202) were grown in RPMI containing L-glutamine (Gibco #11835) supplemented with 1 mM sodium pyruvate (Sigma #S8636) and penicillin (100 units/ml)/streptomycin (0.1 mg/ml) (Sigma #P4333) in 10% Fetal Bovine Serum (FBS) (Sigma #F0804). The cells were routinely passaged and grown to confluency (˜10^6 cells/ml). On the day of the experiment, THP-1 cells were harvested and resuspended into RPMI medium (without FBS). The cells were then counted and viability (>90%) checked by Trypan blue (Sigma #T8154). Appropriate dilutions were made to give a concentration of 625,000 cells/ml. To this diluted cell solution was added LPS (Sigma #L4524) to give a 1 μg/ml Final Assay Concentration (FAC). 40 μl of the final preparation was aliquoted into each well of a 96-well plate. The plate thus prepared was used for compound screening.
The following method step-by-step assay was followed for compound screening. • Seed THP-1 cells (25,000 cells/well) containing 1.0 μg/ml LPS in 40 μl of RPMI medium (without FBS) in 96-well, black walled, clear bottom cell culture plates coated with poly-D-lysine (VWR #734-0317) • Add 5 μl compound (8 points half-log dilution, with 10 μM top dose) or vehicle (DMSO 0.1% FAC) to the appropriate wells • Incubate for 3 hours at 37° C., 5% CO2 • Add 5 μl nigericin (Sigma #N7143) (FAC 5 μM) to all wells • Incubate for 1 hr at 37° C., 5% CO2 • At the end of the incubation period, spin plates at 300×g for 3 mins and remove supernatant • Then add 50 μl of resazurin (Sigma #R7017) (FAC 100 μM resazurin in RPMI medium without FBS) and incubate plates for a further 1-2 hours at 37° C. and 5% CO2 • Plates were read in an Envision reader at Ex 560 nm and Em 590 nm • IC50 data is fitted to a non-linear regression equation (log inhibitor vs response-variable slope 4-parameters)

[2] = target: T1, NLRP3; test: Human whole blood IL-1β release assay; format: cell-based; conditions: human whole blood with 1 μg/ml LPS, compound 3 hours, nigericin 10 μM 1 hr, IL-1β by AlphaLisa
Experimental: For systemic delivery, the ability to inhibit NLRP3 when the compounds are present within the bloodstream is of great importance. For this reason, the NLRP3 inhibitory activity of a number of compounds in human whole blood was investigated in accordance with the following protocol. • Human whole blood in Li-heparin tubes was obtained from healthy donors from a volunteer donor panel. • Plate out 80 μl of whole blood containing 1 μg/ml of LPS in 96-well, clear bottom cell culture plate (Corning #3585) • Add 10 μl compound (8 points half-log dilution with 10 μM top dose) or vehicle (DMSO 0.1% FAC) to the appropriate wells • Incubate for 3 hours at 37° C., 5% CO2 • Add 10 μl nigericin (Sigma #N7143) (10 μM FAC) to all wells • Incubate for 1 hr at 37° C., 5% CO2 • At the end of the incubation period, spin plates at 300×g for 5 mins to pellet cells and remove 20 μl of supernatant and add to 96-well v-bottom plates for IL-1β analysis (note: these plates containing the supernatants can be stored at −80° C. to be analysed at a later date) • IL-1β was measured according to the manufacturer protocol (Perkin Elmer-AlphaLisa IL-1 Kit AL220F-5000) • IC50 data is fitted to a non-linear regression equation (log inhibitor vs response-variable slope 4-parameters)

Structure (SMILES)	IC50 [1] [µM]	IC50 [2] [µM]
Cc1cc(C(F)(F)F)cc(O)c1-c1ccc2oc(N3Cc4c[nH]c(=O)cc4C3)nc2n1 [Example 1, 2-[5-[2-Hydroxy-6-methyl-4-(trifluoromethyl)phenyl]oxazolo[4,5-b]pyridin-2-yl]-3,5-dihydro-1H-pyrrolo[3,4-c]pyridin-6-one]	0.0007	0.108
Cc1cc(C(F)(F)F)cc(O)c1-c1ccc2oc(N3Cc4cc(=O)n(C)cc4C3)nc2n1 [Example 2, 2-[5-[2-Hydroxy-6-methyl-4-(trifluoromethyl)phenyl]oxazolo[4,5-b]pyridin-2-yl]-5-methyl-1,3-dihydropyrrolo[3,4-c]pyridin-6-one]	0.0033	0.301
Cc1cc(C#N)cc(O)c1-c1ccc2oc(N3Cc4c[nH]c(=O)cc4C3)nc2n1 [Example 3, 3-Hydroxy-5-methyl-4-[2-(6-oxo-3,5-dihydro-1H-pyrrolo[3,4-c]pyridin-2-yl)oxazolo[4,5-b]pyridin-5-yl]benzonitrile]	0.0077	0.117
Cc1cc(Cl)cc(O)c1-c1ccc2oc(N3Cc4c[nH]c(=O)cc4C3)nc2n1 [Example 4, 2-[5-(4-Chloro-2-hydroxy-6-methyl-phenyl)oxazolo[4,5-b]pyridin-2-yl]-3,5-dihydro-1H-pyrrolo[3,4-c]pyridin-6-one]	0.0017	0.077
Cc1cc(C(F)(F)F)cc(O)c1-c1ccc2oc(N3Cc4cc(=O)n(CCO)cc4C3)nc2n1 [Example 5, 5-(2-Hydroxyethyl)-2-[5-[2-hydroxy-6-methyl-4-(trifluoromethyl)phenyl]oxazolo[4,5-b]pyridin-2-yl]-1,3-dihydropyrrolo[3,4-c]pyridin-6-one]	0.0026	0.151
Cc1cc(Cl)cc(O)c1-c1ccc2oc(N3Cc4ccccc4C3)nc2n1 [Example 6, 5-Chloro-2-(2-isoindolin-2-yloxazolo[4,5-b]pyridin-5-yl)-3-methyl-phenol]	0.09	
Cc1cc(Cl)cc(O)c1-c1ccc2oc(N3Cc4ccncc4C3)nc2n1 [Example 7, 5-chloro-2-[2-(1,3-dihydropyrrolo[3,4-c]pyridin-2-yl)oxazolo[4,5-b]pyridin-5-yl]-3-methyl-phenol]	0.0095	0.487
Cc1cc(Cl)cc(O)c1-c1ccc2oc(N3Cc4ccc(O)cc4C3)nc2n1 [Example 8, 2-[5-(4-Chloro-2-hydroxy-6-methyl-phenyl)oxazolo[4,5-b]pyridin-2-yl]isoindolin-5-ol]	0.0699	
Cc1cc(Cl)cc(O)c1-c1ccc2oc(N3Cc4cccc(F)c4C3)nc2n1 [Example 9, 5-Chloro-2-[2-(4-fluoroisoindolin-2-yl)oxazolo[4,5-b]pyridin-5-yl]-3-methyl-phenol]	0.263	
Cc1cc(C#N)cc(O)c1-c1ccc2oc(N3Cc4ccncc4C3)nc2n1 [Example 10, 4-[2-(1,3-Dihydropyrrolo[3,4-c]pyridin-2-yl)oxazolo[4,5-b]pyridin-5-yl]-3-hydroxy-5-methyl-benzonitrile]	0.029	2.23
Cc1ncc2c(n1)CCN(c1nc3nc(-c4c(C)cc(Cl)cc4O)ccc3o1)C2 [Example 11, 5-Chloro-3-methyl-2-[2-(2-methyl-7,8-dihydro-5H-pyrido[4,3-d]pyrimidin-6-yl)oxazolo[4,5-b]pyridin-5-yl]phenol]	0.0271	0.225
COc1cc2c(cn1)CN(c1nc3nc(-c4c(C)cc(C(F)(F)F)cc4O)ccc3o1)C2 [Example 12, 2-[2-(6-Methoxy-1,3-dihydropyrrolo[3,4-c]pyridin-2-yl)oxazolo[4,5-b]pyridin-5-yl]-3-methyl-5-(trifluoromethyl)phenol]	0.002	0.84
Cc1cc(Cl)cc(O)c1-c1ccc2oc(N3Cc4cncnc4C3)nc2n1 [Example 13, 5-Chloro-2-[2-(5,7-dihydropyrrolo[3,4-d]pyrimidin-6-yl)oxazolo[4,5-b]pyridin-5-yl]-3-methyl-phenol formic acid salt]	0.015	0.304
Cc1cc(Cl)cc(O)c1-c1ccc2oc(N3Cc4c[nH]nc4C3)nc2n1 [Example 14, 5-Chloro-2-[2-(4,6-dihydro-2H-pyrrolo[3,4-c]pyrazol-5-yl)oxazolo[4,5-b]pyridin-5-yl]-3-methyl-phenol]	0.0562	0.305
Cc1cc(Cl)cc(O)c1-c1ccc2oc(N3CCc4ccncc4C3)nc2n1 [Example 15, 5-Chloro-2-[2-(3,4-dihydro-1H-2,7-naphthyridin-2-yl)oxazolo[4,5-b]pyridin-5-yl]-3-methyl-phenol]	0.0105	0.173
Cc1cc(C#N)cc(O)c1-c1ccc2oc(N3Cc4ccccc4C3)nc2n1 [Example 16, 3-Hydroxy-4-(2-isoindolin-2-yloxazolo[4,5-b]pyridin-5-yl)-5-methyl-benzonitrile]	0.066	
Cc1cc(C#N)cc(O)c1-c1ccc2oc(N3CCc4ncncc4C3)nc2n1 [Example 17, 4-[2-(7,8-Dihydro-5H-pyrido[4,3-d]pyrimidin-6-yl)oxazolo[4,5-b]pyridin-5-yl]-3-hydroxy-5-methyl-benzonitrile]	0.0349	0.225
Cc1cc(C(F)(F)F)cc(O)c1-c1ccc2oc(N3Cc4nccnc4C3)nc2n1 [Example 23, 2-[2-(5,7-Dihydropyrrolo[3,4-b]pyrazin-6-yl)oxazolo[4,5-b]pyridin-5-yl]-3-methyl-5-(trifluoromethyl)phenol]		3.72
Cc1cc(Cl)cc(O)c1-c1ccc2oc(N3CCc4c(C#N)cccc4C3)nc2n1 [Example 33, 2-(5-(4-Chloro-2-hydroxy-6-methylphenyl)oxazolo[4,5-b]pyridin-2-yl)-1,2,3,4-tetrahydroisoquinoline-5-carbonitrile]	0.447	
COc1cccc2c1CCN(c1nc3nc(-c4c(C)cc(Cl)cc4O)ccc3o1)C2 [Example 34, 5-chloro-2-[2-(5-methoxy-3,4-dihydro-1H-isoquinolin-2-yl)oxazolo[4,5-b]pyridin-5-yl]-3-methyl-phenol]	0.675	
Cc1cc(Cl)cc(O)c1-c1ccc2oc(N3CCc4ccc(F)cc4C3)nc2n1 [Example 35, 5-Chloro-2-[2-(7-fluoro-3,4-dihydro-1H-isoquinolin-2-yl)oxazolo[4,5-b]pyridin-5-yl]-3-methyl-phenol]	0.236	
Cc1cc(Cl)cc(O)c1-c1ccc2oc(N3CCc4nccnc4C3)nc2n1 [Example 40, 5-Chloro-2-[2-(7,8-dihydro-5H-pyrido[3,4-b]pyrazin-6-yl)oxazolo[4,5-b]pyridin-5-yl]-3-methyl-phenol]	0.0716	
Cc1cc(C(F)(F)F)cc(O)c1-c1ccc2oc(N3CCc4nc[nH]c(=O)c4C3)nc2n1 [Example 41, 6-[5-[2-Hydroxy-6-methyl-4-(trifluoromethyl)phenyl]oxazolo[4,5-b]pyridin-2-yl]-3,5,7,8-tetrahydropyrido[4,3-d]pyrimidin-4-one]	0.174	
Cc1cc(Cl)cc(O)c1-c1ccc2oc(N3Cc4ccc5c(c4C3)OCO5)nc2n1 [Example 42, 5-Chloro-2-(2-(6,8-dihydro-7H-[1,3]dioxolo[4,5-e]isoindol-7-yl)oxazolo[4,5-b]pyridin-5-yl)-3-methylphenol]	0.144	
Cc1cc(C(F)(F)F)cc(O)c1-c1ccc2oc(N3Cc4[nH]c(=O)[nH]c(=O)c4C3)nc2n1 [Example 44, 6-[5-[2-Hydroxy-6-methyl-4-(trifluoromethyl)phenyl]oxazolo[4,5-b]pyridin-2-yl]-5,7-dihydro-1H-pyrrolo[3,4-d]pyrimidine-2,4-dione]	0.245	
